Source: patent US6489307B1, “Antisense compositions targeted to β1-adrenoceptor-specific mRNA and methods of use” (University of Florida, priority 1998, dated 2002)
“And” between values parts separate entries of the source, which are not always exact repeats. Identical values can stand only once.

Experiments:
Format in all cases: in vivo, rat (SHR)
[1] = tested on: Total (β1+β2) β-ARs; experiment: β-AR binding assay (ICYP saturation) on heart ventricle membranes after i.v. injection; conditions: cardiac ventricles of SHRs 4 days after treatment (1 mg/kg i.v.)
Method: (§1) Four days after intravenous injection of saline (n=6) or 1 mg/kg inverted ODN (n=6) or 2, 4, 10 or 18 days after injection of 1 mg/kg β1-AS-ODN (n=24), animals were euthanized, and membranes were prepared from heart ventricles as previously described (Baker and Pitha, 1982). For saturation experiments, 100 μg membrane protein was incubated in triplicate with 6 concentrations of [^125I](^−)-iodocyanopindolol (ICYP, NEN Life Science, 6.25 to 100 pmol/L) in a total volume of 250 μL containing 50 mmol/L Tris-HCl (pH 7.4), 5 mmol/L MgCl2 at 36° C. for 60 minutes. The nonspecific and β2-AR-binding levels were determined in the presence of 1 μmol/L (±)-alprenolol and 150 nmol/L CGP20712A (RBI), respectively. Then the reaction mixture was passed through Whatman (GF/B glass fiber filter using a Brandel harvester, and the bound radioactivity was counted for 1 min.
(§2) Four days after intravenous injection of saline (n=6) or 1 mg/kg inverted ODN (n=6), or 2, 4, 10, 18 days after injection of 1 mg/kg β1-AS-ODN (n=24), animals were sacrificed and membranes were prepared from heart ventricles as previously described (Baker and Pitha, 1982). For saturation studies, 100 μg membrane protein was incubated in triplicate with six concentrations of ^125I-(−)iodocyanopindolol (I-CYP, NEN Life Science, 6.25-100 pM) in a total volume of 250 μl containing 50 mM Tris-HCl (pH 7.4), 5 mM MgCl2 at 36° C. for 60 min. The nonspecific and β2-adrenoceptor binding levels were determined in the presence of 1 μM (±)-alprenolol and 150 nM CGP20712A (RBI), respectively. Then the reaction mixture was passed through Whatman GF/B glass fiber filter using Brandel harvester and the bound radioactivity was counted for one min.

[2] = target: T1, β1-ARs (Rattus norvegicus, UniProt P18090); experiment: as above; conditions: for Bmax, β1: cardiac ventricles of SHRs 4 days after treatment (1 mg/kg i.v.)
T1 construct: membranes were prepared from heart ventricles as previously described; from tissue; host or cells: heart ventricles of SHR
Method: as §1, §2

[3] = target: T2, β2-ARs (Rattus norvegicus, UniProt P10608); experiment: as above; conditions: for Bmax, β2: cardiac ventricles of SHRs 4 days after treatment (1 mg/kg i.v.)
T2 construct: membranes were prepared from heart ventricles as previously described; from tissue; host or cells: heart ventricles of SHR
Method: as §1, §2

[4] = tested on: SHRs; experiment: Blood pressure of SHRs by tail cuff; conditions: for reduction of blood pressure throughout the treatment period: repeated treatment for more than 2 months; for Duration (Range) / Range of Reduction / Maximum Reduction in Blood Pressure: single i.v. 0.5 mg/kg
Method: (§3) Rats were warmed for 20 to min. in cages on heating pads. The temperature was controlled at 35° C. to 37° C. Then the rats were placed in a plastic restrainer kept at 37° C. A pneumatic pulse sensor was attached to the tail. After cuff inflation, SBP was determined as the first pulsatile oscillation on the descending side of the pressure curve. HR was determined by manual counting of pulse numbers per unit time. BP and HR were recorded by a Narco physiograph. Data values of each rat were taken as an average of at least 4 stable readings. Baseline was determined by averaging 3 days of measurements before antisense administration.
Blood pressure was measured by the tail-cuff method as described above. Systolic blood pressure (SBP) was determined as the first pulsatile oscillation on the descending side of the pressure curve. Data values of each rat were taken as an average of ≧4 stable readings. Baseline was determined by averaging 3 days of measurements before antisense administration.
as §3, with “for 20-30 min” for “for 20 to min.”, “at 35-37°” for “at 35° C. to 37°”, “Then” for “Then the”, “of” for “of the”, “least four” for “least 4”, “averaging three” for “averaging 3”

[5] = tested on: β1-AR; experiment: β-adrenergic receptor binding assay on renal cortex membranes; conditions: for decrease in Bmax of β1-ARs in renal cortex: charge ratio 2
Method: Four days after intravenous injection of saline (n=6) or 0.5 mg/kg inverted ODN (n=6) or 4, 10, 18 and 40 days after injection of 0.5 mg/kg β1-AS-ODN (n=24), animals were euthanized, and membranes were prepared from the renal cortex of the left kidneys as previously described (Baker and Pitha, 1982). For saturation studies, 100 μg membrane protein was incubated in triplicate with 6 concentrations of [^125](−)iodocyanopindolol (ICYP, NEN Life Science, 6.25 to 100 pmol/L) in a total volume of 250 μL containing 50 mmol/L Tris-HCl (pH 7.4) and 5 mmol/L MgCl2 at 36° C. for 60 min. The nonspecific and β2-adrenergic receptor binding levels were determined in the presence of 1 μmol/L (±)-alprenolol and […] CGP20712A (RBI), respectively. Then the reaction mixture was passed through a Whatman GF/B glass fiber filter with a Brandel harvester, and the bound radioactivity was counted for 1 min.

[6] = Liver transaminases in plasma after repeated injections; conditions: for ALT / AST: after repeated administration
Method: Safety profiles including liver transaminases, hematology, immune response and tissue pathology were investigated during three repeated injections of β1-AS-ODNs for extended periods of time.
Alanine aminotransferase (ALT) and aspartate aminotransferase (AST) are routinely used as a clinical index for liver function. Their levels increase substantially upon liver damage. SHR were treated with three repeated injections of β1-AS-ODN.

[7] = 0.5 mg/kg i.v., charge ratio 1.5
[8] = 0.5 mg/kg i.v., charge ratio 2.5
[9] = 0.5 mg/kg i.v., charge ratio 3.5
[10] = single 1 mg/kg, liposomes DNA/lipid 1:0.5

T1 sequence (P18090 whole entry): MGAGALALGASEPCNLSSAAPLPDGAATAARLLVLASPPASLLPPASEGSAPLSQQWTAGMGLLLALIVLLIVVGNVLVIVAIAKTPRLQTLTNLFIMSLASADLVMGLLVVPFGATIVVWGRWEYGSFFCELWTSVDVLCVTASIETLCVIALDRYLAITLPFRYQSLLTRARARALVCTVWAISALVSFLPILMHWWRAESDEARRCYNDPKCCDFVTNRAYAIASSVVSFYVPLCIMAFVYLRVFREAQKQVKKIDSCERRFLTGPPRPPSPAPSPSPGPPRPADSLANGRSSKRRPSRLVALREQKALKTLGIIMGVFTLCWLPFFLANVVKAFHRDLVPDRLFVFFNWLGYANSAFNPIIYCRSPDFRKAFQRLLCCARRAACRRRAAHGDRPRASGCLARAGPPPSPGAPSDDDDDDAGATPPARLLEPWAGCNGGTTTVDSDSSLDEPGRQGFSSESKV
T2 sequence (P10608 whole entry): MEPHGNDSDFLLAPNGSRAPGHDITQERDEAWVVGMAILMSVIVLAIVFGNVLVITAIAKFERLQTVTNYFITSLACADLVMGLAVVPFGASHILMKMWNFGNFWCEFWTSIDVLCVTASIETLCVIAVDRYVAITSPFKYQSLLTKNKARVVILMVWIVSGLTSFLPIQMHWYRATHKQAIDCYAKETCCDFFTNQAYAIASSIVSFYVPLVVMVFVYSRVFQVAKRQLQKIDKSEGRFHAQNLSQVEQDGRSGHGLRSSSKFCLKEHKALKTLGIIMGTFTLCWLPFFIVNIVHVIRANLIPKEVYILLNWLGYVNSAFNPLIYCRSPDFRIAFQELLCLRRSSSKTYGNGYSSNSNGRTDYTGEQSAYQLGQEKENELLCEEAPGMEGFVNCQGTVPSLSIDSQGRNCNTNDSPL

Substance: 5′-AGCCGTACCCGCGCC-3′ (phosphorothioate backbone, further chemistry not given here) [Inverted ODN, 15-mer inverted ODN control, reference compound]
- Bmax, Total (β1+β2) [1]: 26.3 ± 3.0 fmol/mg
- effect on either β-AR subtype ([2]; SHR cardiac ventricles, 1 mg/kg i.v., 4 days): no effect
- Bmax, β1 [2]: 18.1 ± 2.3 fmol/mg
- Bmax, β2 [3]: 8.7 ± 0.5 fmol/mg
- effect on SBP ([4]; 1 mg/kg with liposomes): No effect
- reduction of blood pressure throughout the treatment period [4]: no change
- effect on either β-AR subtype in renal cortex ([5]; 0.5 mg/kg i.v., 4 days): no effect
- ALT [6]: 30.5 ± 3.8 unit/ml
- AST [6]: 83.0 ± 8.3 unit/ml

Substance: 5′-CCGCGCCCATGCCGA-3′ (phosphorothioate backbone, further chemistry not given here) [β1-AS-ODN, 15-mer antisense ODN targeted to the AUG start codon of rat β1-AR mRNA]
- Bmax, Total (β1+β2) [1]: 19.8 ± 1.8 fmol/mg
- β1/β2 subtype ratio in the ventricles ([2]; after treatment, from ≈70/30): ≈ 50/50 and 50/50
- Bmax, β1 [2]: 10.0 ± 1.2 fmol/mg
- duration of significant reduction of β1-AR density in SHR hearts ([2]; single i.v. 1 mg/kg with cationic liposomes 1:2.5): 18 days
- drop in cardiac β1-AR density ([2]; single i.v. 1 mg/kg with cationic liposomes 1:2.5, day 10): 33%
- drop in cardiac β1-AR density ([2]; single i.v. 1 mg/kg with cationic liposomes 1:2.5, day 18): 29%
- change in Bmax of β2-ARs ([3]; SHR hearts, single i.v. 1 mg/kg): no significant change
- Bmax, β2 [3]: 9.9 ± 0.5 fmol/mg
- duration of SBP reduction ([4]; 0.5 mg/kg i.v., charge ratio 0.5): 7 to 8 days
- reduction of SBP ([4]; 0.5 mg/kg i.v., charge ratio 0.5, representative experiment): up to 33 mm Hg
- duration of the hypotensive impact [4, 7]: 20 days
- maximum drop in SBP [4, 7]: ≈ 35 mm Hg
- duration of the hypotensive impact [4, 8]: 33 days
- maximum drop in SBP [4, 8]: ≈ 35 mm Hg
- duration of the hypotensive impact [4, 9]: 33 days
- maximum drop in SBP [4, 9]: ≈ 25 mm Hg
- effect on SBP ([4]; 0.5 mg/kg i.v., β1-AS-ODN alone (ratio 0)): did not change SBP
- reduction of blood pressure throughout the treatment period [4]: 20-30 mmHg
- duration of diminished SBP [4, 10]: 8 days
- maximum drop in SBP [4, 10]: 38±5 mm Hg
- Duration (Range) ([4]; charge ratio 0.5): 7 to 8 days
- Range of Reduction ([4]; charge ratio 0.5): 24-38 mm Hg
- Duration (Range) ([4]; charge ratio 1.5): 18 to 20 days
- Range of Reduction ([4]; charge ratio 1.5): 18-35 mm Hg
- Duration (Range) ([4]; charge ratio 2.5): 20 to 33 days
- Range of Reduction ([4]; charge ratio 2.5): 20-34 mm Hg
- Duration (Range) ([4]; charge ratio 3.5): 20 to 33 days
- Range of Reduction ([4]; charge ratio 3.5): 15-24 mm Hg
- Maximum Reduction in Blood Pressure ([4]; charge ratio liposome/ODN 0): 2 mm Hg
- Maximum Reduction in Blood Pressure ([4]; charge ratio liposome/ODN 0.5): 35-38 mm Hg
- Maximum Reduction in Blood Pressure ([4]; charge ratio liposome/ODN 1.5): 28-35 mm Hg
- Maximum Reduction in Blood Pressure ([4]; charge ratio liposome/ODN 2.5): 30-34 mm Hg
- Maximum Reduction in Blood Pressure ([4]; charge ratio liposome/ODN 3.5): 20-24 mm Hg
- hypotensive effect ([4]; single i.v. injection with cationic liposomes, summary): 30 to 35 mm Hg
- affinity of either subtype in renal cortex ([5]; 0.5 mg/kg i.v.): not affected
- decrease in Bmax of β1-ARs in renal cortex ([5]; 0.5 mg/kg i.v., day 4): 35%
- decrease in Bmax of β1-ARs in renal cortex ([5]; 0.5 mg/kg i.v., day 10): 29%
- decrease in Bmax of β1-ARs in renal cortex ([5]; 0.5 mg/kg i.v., day 18): 23%
- Bmax of β1-ARs in renal cortex ([5]; 0.5 mg/kg i.v., day 40): completely restored
- duration of reduction of β1-AR levels in renal cortex ([5]; summary statement): 18 days
- reduction of β1-AR levels in renal cortex ([5]; summary statement): ≈ 30%
- plasma concentrations of ALT and AST vs control groups ([6]; after each of three repeated injections): no significant difference
- ALT [6]: 25.7 ± 1.1 unit/ml
- AST [6]: 74.0 ± 3.7 unit/ml
